Results reported in ChEMBL document CHEMBL4507279, “Data for DCP probe BI-9627” (2021).

What was measured:
[1] = biological target: Ephrin type-A receptor 4 (Homo sapiens) (UniProt P54764); details: Compound concentration 1000.0 nM
[2] = biological target: Serine/threonine-protein kinase 32B (Homo sapiens) (UniProt Q9NY57); details: Compound concentration 1000.0 nM
[3] = biological target: Cyclin-dependent kinase 2 (Homo sapiens) (UniProt P24941); details: Compound concentration 1000.0 nM
[4] = system: Phosphatidylinositol 4,5-bisphosphate 3-kinase catalytic subunit alpha isoform (Homo sapiens), P42336 [C420R]; details: Compound concentration 1000.0 nM
[5] = biological target: Serine/threonine-protein kinase MRCK gamma (Homo sapiens) (UniProt Q6DT37); details: Compound concentration 1000.0 nM
[6] = system: Epidermal growth factor receptor (Homo sapiens), P00533 [UNDEFINED MUTATION]; details: Compound concentration 1000.0 nM
[7] = biological target: Serine/threonine-protein kinase DCLK1 (Homo sapiens) (UniProt O15075); details: Compound concentration 1000.0 nM
[8] = biological target: Hormonally up-regulated neu tumor-associated kinase (Homo sapiens) (UniProt P57058); details: Compound concentration 1000.0 nM
Sequence of Hormonally up-regulated neu tumor-associated kinase (Homo sapiens) (P57058 whole entry): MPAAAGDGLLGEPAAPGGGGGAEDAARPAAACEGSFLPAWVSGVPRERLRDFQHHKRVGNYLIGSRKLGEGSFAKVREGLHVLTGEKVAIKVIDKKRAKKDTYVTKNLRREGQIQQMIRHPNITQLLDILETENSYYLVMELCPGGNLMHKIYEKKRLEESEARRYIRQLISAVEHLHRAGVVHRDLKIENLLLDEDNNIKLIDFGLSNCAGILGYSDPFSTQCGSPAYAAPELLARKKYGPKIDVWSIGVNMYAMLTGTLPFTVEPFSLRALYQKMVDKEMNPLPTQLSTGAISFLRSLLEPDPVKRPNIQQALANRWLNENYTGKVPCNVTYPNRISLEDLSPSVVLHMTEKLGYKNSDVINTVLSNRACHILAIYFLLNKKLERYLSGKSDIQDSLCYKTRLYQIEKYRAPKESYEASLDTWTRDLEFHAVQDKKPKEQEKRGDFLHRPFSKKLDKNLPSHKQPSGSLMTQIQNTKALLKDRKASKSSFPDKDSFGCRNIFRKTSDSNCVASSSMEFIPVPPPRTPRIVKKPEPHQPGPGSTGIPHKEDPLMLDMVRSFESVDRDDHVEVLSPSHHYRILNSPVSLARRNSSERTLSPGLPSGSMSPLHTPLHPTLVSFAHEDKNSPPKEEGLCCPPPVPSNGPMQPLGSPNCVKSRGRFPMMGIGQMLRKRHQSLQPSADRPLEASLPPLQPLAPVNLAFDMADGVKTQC

[9] = biological target: Megakaryocyte-associated tyrosine-protein kinase (Homo sapiens) (UniProt P42679); details: Compound concentration 1000.0 nM
[10] = biological target: Cyclin-dependent kinase 9 (Homo sapiens) (UniProt P50750); details: Compound concentration 1000.0 nM
Sequence of Cyclin-dependent kinase 9 (Homo sapiens) (P50750 whole entry): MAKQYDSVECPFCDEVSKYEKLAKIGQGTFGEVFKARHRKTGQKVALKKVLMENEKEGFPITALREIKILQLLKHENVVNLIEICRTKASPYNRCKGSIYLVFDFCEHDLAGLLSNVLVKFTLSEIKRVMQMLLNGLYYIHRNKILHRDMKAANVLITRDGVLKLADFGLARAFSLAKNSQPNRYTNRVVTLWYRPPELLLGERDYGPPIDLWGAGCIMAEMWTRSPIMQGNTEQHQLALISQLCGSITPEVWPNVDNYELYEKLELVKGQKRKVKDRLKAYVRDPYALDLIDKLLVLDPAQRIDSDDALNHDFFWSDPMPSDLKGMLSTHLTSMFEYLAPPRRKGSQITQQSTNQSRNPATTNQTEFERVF

[11] = biological target: Serine/threonine-protein kinase PAK 2 (Homo sapiens) (UniProt Q13177); details: Compound concentration 1000.0 nM
[12] = biological target: Myosin light chain kinase, smooth muscle (Homo sapiens) (UniProt Q15746); details: Compound concentration 1000.0 nM
[13] = biological target: Serine/threonine-protein kinase Sgk3 (Homo sapiens) (UniProt Q96BR1); details: Compound concentration 1000.0 nM
Sequence of Serine/threonine-protein kinase Sgk3 (Homo sapiens) (Q96BR1 whole entry): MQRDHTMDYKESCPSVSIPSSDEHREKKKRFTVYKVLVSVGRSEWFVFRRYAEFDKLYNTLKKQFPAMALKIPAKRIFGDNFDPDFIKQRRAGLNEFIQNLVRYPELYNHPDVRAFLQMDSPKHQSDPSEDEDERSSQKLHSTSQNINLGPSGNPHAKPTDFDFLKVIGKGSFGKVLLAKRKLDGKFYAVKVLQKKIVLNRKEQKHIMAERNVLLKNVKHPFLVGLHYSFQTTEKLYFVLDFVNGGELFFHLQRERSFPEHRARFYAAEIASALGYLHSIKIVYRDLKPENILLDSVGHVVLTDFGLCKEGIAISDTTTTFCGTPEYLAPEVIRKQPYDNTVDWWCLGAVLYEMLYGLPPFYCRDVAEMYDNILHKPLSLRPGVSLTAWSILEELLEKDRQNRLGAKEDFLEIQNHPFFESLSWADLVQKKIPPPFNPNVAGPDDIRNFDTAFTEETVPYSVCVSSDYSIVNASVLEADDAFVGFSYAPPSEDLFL

[14] = biological target: Aurora kinase B (Homo sapiens) (UniProt Q96GD4); details: Compound concentration 1000.0 nM
[15] = biological target: Serine/threonine-protein kinase DCLK2 (Homo sapiens) (UniProt Q8N568); details: Compound concentration 1000.0 nM
[16] = biological target: Mitogen-activated protein kinase kinase kinase kinase 4 (Homo sapiens) (UniProt O95819); details: Compound concentration 1000.0 nM
[17] = biological target: Sodium/hydrogen exchanger 2 (Homo sapiens, UniProt Q9UBY0); assay: pHi change assay with SLC9A2
[18] = biological target: Ribosomal protein S6 kinase alpha-6 (Homo sapiens) (UniProt Q9UK32); details: Compound concentration 1000.0 nM
[19] = biological target: 5-hydroxytryptamine receptor 1D (Homo sapiens) (UniProt P28221); details: Compound concentration 10.0 uM
[20] = biological target: Vascular endothelial growth factor receptor 2 (Homo sapiens) (UniProt P35968); details: Compound concentration 1000.0 nM
Sequence of Vascular endothelial growth factor receptor 2 (Homo sapiens) (P35968 whole entry): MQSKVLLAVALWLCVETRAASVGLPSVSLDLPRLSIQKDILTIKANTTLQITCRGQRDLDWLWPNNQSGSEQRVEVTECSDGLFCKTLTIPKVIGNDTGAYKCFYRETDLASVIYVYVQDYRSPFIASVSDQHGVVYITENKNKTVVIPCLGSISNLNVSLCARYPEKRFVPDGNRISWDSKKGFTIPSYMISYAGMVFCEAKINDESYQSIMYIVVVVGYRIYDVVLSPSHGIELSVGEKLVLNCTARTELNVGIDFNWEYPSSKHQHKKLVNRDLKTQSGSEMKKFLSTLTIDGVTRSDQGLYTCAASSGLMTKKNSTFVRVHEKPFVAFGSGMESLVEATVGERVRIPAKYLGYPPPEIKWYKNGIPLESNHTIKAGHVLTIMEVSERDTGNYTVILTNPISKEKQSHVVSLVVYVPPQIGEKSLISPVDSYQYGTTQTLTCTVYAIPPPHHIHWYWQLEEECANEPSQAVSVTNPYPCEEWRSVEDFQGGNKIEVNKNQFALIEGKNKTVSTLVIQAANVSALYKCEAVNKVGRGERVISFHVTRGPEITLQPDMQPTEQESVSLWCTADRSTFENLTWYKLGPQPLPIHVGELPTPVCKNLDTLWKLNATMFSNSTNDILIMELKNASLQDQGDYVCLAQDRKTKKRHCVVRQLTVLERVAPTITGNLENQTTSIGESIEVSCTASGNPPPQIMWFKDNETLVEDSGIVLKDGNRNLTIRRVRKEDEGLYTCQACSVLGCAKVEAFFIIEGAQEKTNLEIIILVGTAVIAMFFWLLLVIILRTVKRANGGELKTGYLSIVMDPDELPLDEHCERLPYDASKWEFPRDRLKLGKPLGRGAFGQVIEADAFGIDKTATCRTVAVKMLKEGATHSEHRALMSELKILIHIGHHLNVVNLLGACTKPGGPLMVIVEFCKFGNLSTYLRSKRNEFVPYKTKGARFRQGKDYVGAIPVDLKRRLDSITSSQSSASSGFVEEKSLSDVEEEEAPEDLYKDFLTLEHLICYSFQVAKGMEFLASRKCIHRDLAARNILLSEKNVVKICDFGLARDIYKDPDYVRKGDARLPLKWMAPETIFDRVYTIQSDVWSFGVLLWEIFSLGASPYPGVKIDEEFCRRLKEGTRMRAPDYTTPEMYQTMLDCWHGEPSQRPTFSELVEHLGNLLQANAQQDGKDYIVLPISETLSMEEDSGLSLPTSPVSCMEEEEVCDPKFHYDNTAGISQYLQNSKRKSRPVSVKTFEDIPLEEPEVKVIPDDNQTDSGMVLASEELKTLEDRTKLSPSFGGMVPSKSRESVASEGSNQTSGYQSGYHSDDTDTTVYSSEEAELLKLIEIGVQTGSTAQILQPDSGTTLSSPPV

[21] = biological target: Mitogen-activated protein kinase kinase kinase 2 (Homo sapiens) (UniProt Q9Y2U5); details: Compound concentration 1000.0 nM
[22] = biological target: Cyclin-dependent kinase 17 (Homo sapiens) (UniProt Q00537); details: Compound concentration 1000.0 nM
[23] = biological target: Tyrosine-protein kinase Tec (Homo sapiens) (UniProt P42680); details: Compound concentration 1000.0 nM
[24] = biological target: Tyrosine-protein kinase ABL1 (Homo sapiens) (UniProt P00519); details: Compound concentration 1000.0 nM
[25] = system: Receptor-type tyrosine-protein kinase FLT3 (Homo sapiens), P36888 [UNDEFINED MUTATION]; details: Compound concentration 1000.0 nM
Sequence of Receptor-type tyrosine-protein kinase FLT3 (Homo sapiens), P36888 [UNDEFINED MUTATION] (P36888 whole entry, looked up, stated change not applied): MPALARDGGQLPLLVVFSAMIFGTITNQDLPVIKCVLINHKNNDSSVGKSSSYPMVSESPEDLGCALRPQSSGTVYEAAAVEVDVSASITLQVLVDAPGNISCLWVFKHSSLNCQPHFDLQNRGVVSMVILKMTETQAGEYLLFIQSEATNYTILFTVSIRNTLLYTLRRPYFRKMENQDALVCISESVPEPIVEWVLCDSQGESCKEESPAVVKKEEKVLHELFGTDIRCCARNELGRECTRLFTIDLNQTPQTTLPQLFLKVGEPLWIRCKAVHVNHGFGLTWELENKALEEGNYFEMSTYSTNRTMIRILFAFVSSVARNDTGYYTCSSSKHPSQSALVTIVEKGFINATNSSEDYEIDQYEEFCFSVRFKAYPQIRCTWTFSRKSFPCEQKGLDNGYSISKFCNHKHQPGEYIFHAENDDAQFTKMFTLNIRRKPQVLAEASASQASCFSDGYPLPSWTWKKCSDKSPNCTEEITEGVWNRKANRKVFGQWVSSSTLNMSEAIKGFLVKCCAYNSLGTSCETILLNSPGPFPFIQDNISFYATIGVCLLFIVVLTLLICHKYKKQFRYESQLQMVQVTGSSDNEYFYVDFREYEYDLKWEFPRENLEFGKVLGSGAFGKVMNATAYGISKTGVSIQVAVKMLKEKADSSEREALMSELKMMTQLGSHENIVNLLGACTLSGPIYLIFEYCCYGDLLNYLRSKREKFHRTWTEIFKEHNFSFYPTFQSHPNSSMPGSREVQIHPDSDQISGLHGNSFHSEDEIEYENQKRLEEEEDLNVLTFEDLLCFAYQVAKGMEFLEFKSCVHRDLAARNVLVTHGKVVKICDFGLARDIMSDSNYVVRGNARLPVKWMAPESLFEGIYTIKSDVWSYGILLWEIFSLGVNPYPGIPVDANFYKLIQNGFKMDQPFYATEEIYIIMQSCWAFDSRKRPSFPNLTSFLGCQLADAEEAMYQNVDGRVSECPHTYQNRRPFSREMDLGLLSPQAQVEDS

[26] = system: Epidermal growth factor receptor (Homo sapiens), P00533 [L858R]; details: Compound concentration 1000.0 nM
[27] = biological target: Membrane-associated tyrosine- and threonine-specific cdc2-inhibitory kinase (Homo sapiens) (UniProt Q99640); details: Compound concentration 1000.0 nM
Sequence of Membrane-associated tyrosine- and threonine-specific cdc2-inhibitory kinase (Homo sapiens) (Q99640 whole entry): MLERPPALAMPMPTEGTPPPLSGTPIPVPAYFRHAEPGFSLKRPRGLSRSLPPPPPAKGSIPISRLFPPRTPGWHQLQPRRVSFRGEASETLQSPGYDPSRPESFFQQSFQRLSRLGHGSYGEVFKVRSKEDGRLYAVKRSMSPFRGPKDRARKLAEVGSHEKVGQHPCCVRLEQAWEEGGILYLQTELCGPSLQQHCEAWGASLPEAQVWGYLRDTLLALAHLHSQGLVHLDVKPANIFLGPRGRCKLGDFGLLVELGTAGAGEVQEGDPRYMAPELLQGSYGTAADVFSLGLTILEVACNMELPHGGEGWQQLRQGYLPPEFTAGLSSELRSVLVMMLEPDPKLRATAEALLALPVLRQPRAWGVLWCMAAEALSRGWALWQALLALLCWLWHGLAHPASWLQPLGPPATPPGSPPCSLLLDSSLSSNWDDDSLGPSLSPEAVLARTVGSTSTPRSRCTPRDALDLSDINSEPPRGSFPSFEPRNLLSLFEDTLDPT

[28] = biological target: Ribosomal protein S6 kinase alpha-2 (Homo sapiens) (UniProt Q15349); details: Compound concentration 1000.0 nM
[29] = system: Epidermal growth factor receptor (Homo sapiens), P00533 [UNDEFINED MUTATION]; details: Compound concentration 1000.0 nM; remark: listed apart in the source
[30] = biological target: Mitogen-activated protein kinase kinase kinase 1 (Homo sapiens) (UniProt Q13233); details: Compound concentration 1000.0 nM
[31] = biological target: Serine/threonine-protein kinase tousled-like 1 (Homo sapiens) (UniProt Q9UKI8); details: Compound concentration 1000.0 nM
[32] = biological target: Activated CDC42 kinase 1 (Homo sapiens) (UniProt Q07912); details: Compound concentration 1000.0 nM
[33] = system: Mast/stem cell growth factor receptor Kit (Homo sapiens), P10721 [L576P]; details: Compound concentration 1000.0 nM
[34] = biological target: Phosphatidylinositol 4,5-bisphosphate 3-kinase catalytic subunit alpha isoform (Homo sapiens) (UniProt P42336); details: Compound concentration 1000.0 nM
[35] = biological target: Casein kinase I isoform alpha-like (Homo sapiens) (UniProt Q8N752); details: Compound concentration 1000.0 nM
[36] = biological target: Mitogen-activated protein kinase kinase kinase 4 (Homo sapiens) (UniProt Q9Y6R4); details: Compound concentration 1000.0 nM
[37] = biological target: Casein kinase II subunit alpha (Homo sapiens) (UniProt P68400); details: Compound concentration 1000.0 nM
[38] = biological target: TGF-beta receptor type-2 (Homo sapiens) (UniProt P37173); details: Compound concentration 1000.0 nM
[39] = biological target: Casein kinase I isoform gamma-3 (Homo sapiens) (UniProt Q9Y6M4); details: Compound concentration 1000.0 nM
[40] = biological target: Sodium-dependent dopamine transporter (Homo sapiens, UniProt Q01959); assay: GPCRScan assay: inhibition of DAT; design: radioligand conc. used [nm] 3.6 – 16.0, parental cells stable HEK
Sequence of Sodium-dependent dopamine transporter (Q01959 whole entry): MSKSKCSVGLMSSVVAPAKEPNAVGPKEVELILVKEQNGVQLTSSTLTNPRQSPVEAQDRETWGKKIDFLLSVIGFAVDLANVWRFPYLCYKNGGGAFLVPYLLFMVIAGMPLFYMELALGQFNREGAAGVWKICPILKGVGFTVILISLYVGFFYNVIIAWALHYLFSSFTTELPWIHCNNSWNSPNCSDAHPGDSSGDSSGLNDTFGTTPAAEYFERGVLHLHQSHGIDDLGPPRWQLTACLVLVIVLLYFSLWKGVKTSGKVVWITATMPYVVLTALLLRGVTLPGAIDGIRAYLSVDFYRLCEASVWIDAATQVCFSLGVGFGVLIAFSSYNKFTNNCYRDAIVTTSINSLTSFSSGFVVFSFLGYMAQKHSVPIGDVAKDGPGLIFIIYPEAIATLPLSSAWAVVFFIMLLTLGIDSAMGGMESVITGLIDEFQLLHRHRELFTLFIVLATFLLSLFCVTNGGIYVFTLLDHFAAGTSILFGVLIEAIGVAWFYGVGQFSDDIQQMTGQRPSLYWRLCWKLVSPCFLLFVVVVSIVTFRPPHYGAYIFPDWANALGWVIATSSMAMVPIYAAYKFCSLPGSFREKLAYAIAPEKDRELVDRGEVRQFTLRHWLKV

[41] = biological target: Insulin receptor (Homo sapiens) (UniProt P06213); details: Compound concentration 1000.0 nM
[42] = biological target: Serine/threonine-protein kinase WNK4 (Homo sapiens) (UniProt Q96J92); details: Compound concentration 1000.0 nM
[43] = biological target: Mitogen-activated protein kinase kinase kinase 11 (Homo sapiens) (UniProt Q16584); details: Compound concentration 1000.0 nM
[44] = biological target: Protein kinase C delta type (Homo sapiens) (UniProt Q05655); details: Compound concentration 1000.0 nM
[45] = biological target: Calcium/calmodulin-dependent protein kinase type II subunit delta (Homo sapiens) (UniProt Q13557); details: Compound concentration 1000.0 nM

CC(=O)N1CCC(c2ccc(C(=O)NC(=N)N)cc2C(F)(F)F)CC1 [BI 9627]
residual activity [1]: 100%
residual activity [2]: 89%
residual activity [3]: 100%
residual activity [4]: 100%
residual activity [5]: 92%
residual activity [6]: 90%
residual activity [7]: 100%
residual activity [8]: 100%
residual activity [9]: 100%
residual activity [10]: 100%
residual activity [11]: 100%
residual activity [12]: 90%
residual activity [13]: 100%
residual activity [14]: 100%
residual activity [15]: 93%
residual activity [16]: 100%
IC50 [17]: 231 nM (not active)
residual activity [18]: 96%
inhibition [19]: 34%
residual activity [20]: 93%
residual activity [21]: 100%
residual activity [22]: 100%
residual activity [23]: 100%
residual activity [24]: 89%
residual activity [25]: 91%
residual activity [26]: 100%
residual activity [27]: 100%
residual activity [28]: 90%
residual activity [29]: 93%
residual activity [30]: 96%
residual activity [31]: 100%
residual activity [32]: 100%
residual activity [33]: 92%
residual activity [34]: 100%
residual activity [35]: 100%
residual activity [36]: 98%
residual activity [37]: 95%
residual activity [38]: 100%
residual activity [39]: 100%
Ki ([40]; read-out: Ki): 1520 nM
Ki ([40]; read-out: pKi (converted)): 1580 nM
residual activity [41]: 100%
residual activity [42]: 100%
residual activity [43]: 100%
residual activity [44]: 100%
residual activity [45]: 100%

CC(=O)N1CCC(c2ccc(C(=O)NC3=NCCN3)cc2C(F)(F)F)CC1 [BI 0054]
residual activity [1]: 100%
residual activity [2]: 100%
residual activity [3]: 100%
residual activity [4]: 93%
residual activity [5]: 93%
residual activity [6]: 100%
residual activity [7]: 89%
residual activity [8]: 100%
residual activity [9]: 100%
residual activity [10]: 84%
residual activity [11]: 95%
residual activity [12]: 90%
residual activity [13]: 82%
residual activity [14]: 100%
residual activity [15]: 88%
residual activity [16]: 100%
IC50 [17]: > 10000 nM (not active)
residual activity [18]: 94%
inhibition [19]: 9.64%
residual activity [20]: 80%
residual activity [21]: 100%
residual activity [22]: 89%
residual activity [23]: 100%
residual activity [24]: 83%
residual activity [25]: 100%
residual activity [26]: 100%
residual activity [27]: 100%
residual activity [28]: 100%
residual activity [29]: 100%
residual activity [30]: 86%
residual activity [31]: 100%
residual activity [32]: 100%
residual activity [33]: 95%
residual activity [34]: 100%
residual activity [35]: 100%
residual activity [36]: 81%
residual activity [37]: 86%
residual activity [38]: 100%
residual activity [39]: 100%
Ki ([40]; read-out: Ki): 825 nM
Ki ([40]; read-out: pKi (converted)): 794 nM
residual activity [41]: 100%
residual activity [42]: 100%
residual activity [43]: 100%
residual activity [44]: 100%
residual activity [45]: 100%
